# Data as given in US6573275B1, “Bicyclic amines” (Syngenta Limited, priority 1995, dated 2003).
# Tested on: peach aphid (Myzus persicae)
# Assay: Insecticidal test against peach aphid, infested Chinese cabbage leaves sprayed
# Type: in vivo
# Conditions: peach aphid (Myzus persicae) on Chinese cabbage leaves, sprayed with 500 ppm composition unless otherwise stated, mortality assessed after 3 days
# Protocol: This Example illustrates the insecticidal properties of the compounds of Formula I. The activity of the compounds of Formula I was determined using a variety of pests. The pests were treated with a liquid composition containing 500 parts per million (ppm) by weight of the compound unless otherwise stated. The compositions were made by dissolving the compound in acetone and ethanol (50:50) mixture and diluting the solutions with water containing 0.05% by weight of a wetting agent sold under the trade name “SYNPERONIC” NP8 until the liquid composition contained the required concentration of the compound. “SYNPERONIC” is a Registered Trade Mark.
# The test procedure adopted with regard to each pest was basically the same and comprised supporting a number of the pests on a medium which was usually a substrate, a host plant or a foodstuff on which the pests feed, and treating either or both the medium and the pests with the compositions. The mortality of the pests was then assessed at periods usually varying from two to five days after the treatment.
# In this test Chinese cabbage leaves were infested with aphids, the infested leaves were sprayed with the test composition, and the mortality assessed after 3 days.
row,SMILES,Score (grading of mortality)
1,N#CC1(c2cncc(Cl)c2)CC2CCC(C1)N2C(=O)c1ccc(Cl)cc1 (stereo not drawn) [Compound 97],C (C indicates less than 40% mortality)
2,N#CC1(c2cncc(Cl)c2)CC2CCC(C1)N2C(=O)c1ccc(F)cc1 (stereo not drawn) [Compound 98],A (A indicates 80-100% mortality)
3,N#CC1(c2cncc(Cl)c2)CC2CCC(C1)N2CCCF (stereo not drawn) [Compound 99],A (A indicates 80-100% mortality)
4,N#CC1(c2cncc(Cl)c2)CC2CCC(C1)N2Cc1ccc(C(F)(F)F)cc1C(F)(F)F (stereo not drawn) [Compound 100],A (A indicates 80-100% mortality)
5,N#CC1(c2cncc(Cl)c2)CC2CCC(C1)N2Cc1ccc(C(=O)O)cc1 (stereo not drawn) [Compound 101],A (A indicates 80-100% mortality)
6,CC=COc1cncc(C2(C#N)CC3CCC(C2)N3C)c1 (stereo not drawn) [Compound 102],A (A indicates 80-100% mortality)
7,N#CC1(c2cncc(Cl)c2)CC2CCC(C1)N2Cc1cccc(F)c1F (stereo not drawn) [Compound 103],A (A indicates 80-100% mortality)
8,"N#CC1(c2cncc(Cl)c2)CC2CCC(C1)N2CCc1ccccc1 (stereo not drawn) [Compound 104, exo-3-(5-chloropyrid-3-yl)-endo-3-cyano-8-(2-phenylethyl)-8-azabicyclo[3.2.1]octane]",A (A indicates 80-100% mortality)
9,N#Cc1ccc(N2C3CCC2CC(C#N)(c2cncc(Cl)c2)C3)cc1 (stereo not drawn) [Compound 105],B (B indicates 40-79% mortality)
10,"N#CC1(c2cncc(Cl)c2)CC2CCC(C1)N2CC=C(F)F (stereo not drawn) [Compound 106, exo-3-(5-chloropyrid-3-yl)-endo-3-cyano-8-(3,3-difluoroprop-2-en-1-yl)-8-azabicyclo[3.2.1]octane]",A (A indicates 80-100% mortality)
11,N#CC1(c2cncc(Cl)c2)CC2CCC(C1)N2CC(=O)O (stereo not drawn) [Compound 107],A (A indicates 80-100% mortality)
12,N#CC1(c2cncc(Cl)c2)CC2CCC(C1)N2Cc1cc(Br)cc(Br)c1 (stereo not drawn) [Compound 108],A (A indicates 80-100% mortality)
13,"N#CC1(c2cncc(Cl)c2)CC2CCC(C1)N2Cc1ccc(F)c(Cl)c1 (stereo not drawn) [Compound 109, exo-3-(5-chloropyrid-3-yl)-endo-3-cyano-8-(3-chloro-4-fluorobenzyl)-8-azabicyclo[3.2.1]octane]",A (A indicates 80-100% mortality)
14,"N#CC1(c2cncc(Cl)c2)CC2CCC(C1)N2C=O (stereo not drawn) [Compound 110, exo-3-(5-chloropyrid-3-yl)-endo-3-cyano-8-formyl-8-azabicyclo[3.2.1]octane]",A (A indicates 80-100% mortality)
15,CC(C)OC(=O)N1C2CCC1CC(C#N)(c1cncc(Cl)c1)C2 (stereo not drawn) [Compound 111],A (A indicates 80-100% mortality)
16,N#CC1(c2cncc(Cl)c2)CC2CCC(C1)N2S(=O)(=O)c1ccccc1 (stereo not drawn) [Compound 112],B (B indicates 40-79% mortality)
17,N#CC1(c2cncc(Cl)c2)CC2CCC(C1)N2Cc1c(F)cc(F)cc1F (stereo not drawn) [Compound 113],A (A indicates 80-100% mortality)
18,N#CC1(c2cncc(Cl)c2)CC2CCC(C1)N2Cc1c(F)ccc(F)c1F (stereo not drawn) [Compound 114],A (A indicates 80-100% mortality)

row,SMILES,Score (grading of mortality)
1,"N#CC(c1ccccc1)N1C2CCC1CC(C#N)(c1cncc(Cl)c1)C2 (stereo not drawn) [Compound 115, exo-3-(5-chloropyrid-3-yl)-endo-3-cyano-8-(a-cyanobenzyl)-8-azabicyclo[3.2.1]octane]",A (A indicates 80-100% mortality)
2,COC(=O)N1C2CCC1CC(C#N)(c1cncc(Cl)c1)C2 (stereo not drawn) [Compound 116],A (A indicates 80-100% mortality)
3,"N#CC1(c2cncc(Cl)c2)CC2CCC(C1)N2Cc1ccccn1 (stereo not drawn) [Compound 117, exo-3-(5-chloropyrid-3-yl)-endo-3-cyano-8-(pyrid-2-ylmethyl)-8-azabicyclo[3.2.1]octane]",A (A indicates 80-100% mortality)
4,N#CC1(c2cncc(Cl)c2)CC2CCC(C1)N2Cc1cccnc1 (stereo not drawn) [Compound 118],A (A indicates 80-100% mortality)
5,N#CC1(c2cncc(Cl)c2)CC2CCC(C1)N2Cc1ccncc1 (stereo not drawn) [Compound 119],A (A indicates 80-100% mortality)
6,N#CC1(c2ccccn2)CC2CCC(C1)N2CCF (stereo not drawn) [Compound 120],A (A indicates 80-100% mortality)
7,"C[C@H](c1ccccc1)N1C2CCC1CC(C#N)(c1cncc(Cl)c1)C2 (stereo partly drawn) [Compound 121, (R)-exo-3-(5-chloropyrid-3-yl)-endo-3-cyano-8-(1-phenylethyl)-8-azabicyclo[3.2.1]octane]",A (A indicates 80-100% mortality)
8,C[C@@H](c1ccccc1)N1C2CCC1CC(C#N)(c1cncc(Cl)c1)C2 (stereo partly drawn) [Compound 122],A (A indicates 80-100% mortality)
9,"Cc1nc(CN2C3CCC2CC(C#N)(c2cncc(Cl)c2)C3)cs1 (stereo not drawn) [Compound 123, exo-3-(5-chloropyrid-3-yl)-endo-3-cyano-8-((2-methylthiazol-4-yl)methyl)-8-azabicyclo[3.2.1]octane]",A (A indicates 80-100% mortality)
10,"Cc1noc(C)c1CN1C2CCC1CC(C#N)(c1cncc(Cl)c1)C2 (stereo not drawn) [Compound 124, exo-3-(5-chloropyrid-3-yl)-endo-3-cyano-8-((3,5-dimethylisoxazol-4-yl)methyl)-8-azabicyclo[3.2.1]octane]",A (A indicates 80-100% mortality)
11,N#CC1(c2cncc(Cl)c2)CC2CCC(C1)N2Cc1ccc(Cl)s1 (stereo not drawn) [Compound 125],A (A indicates 80-100% mortality)
12,N#CC1(c2cncc(Cl)c2)CC2CCC(C1)N2c1ccc(C(F)(F)F)cn1 (stereo not drawn) [Compound 126],C (C indicates less than 40% mortality)
13,"N#CC1(c2cncc(Cl)c2)CC2CCC(C1)N2c1cccc(F)n1 (stereo not drawn) [Compound 128, exo-3-(5-chloropyrid-3-yl)-endo-3-cyano-8-(6-fluoropyrid-2-yl)-8-azabicyclo[3.2.1]octane]",A (A indicates 80-100% mortality)
14,N#CC1(c2cncc(Cl)c2)CC2CCC(C1)N2c1ccc(F)cc1 (stereo not drawn) [Compound 129],A (A indicates 80-100% mortality)
15,N#CC1(c2cncc(Cl)c2)CC2CCC(C1)N2CC(F)(F)C(F)(F)F (stereo not drawn) [Compound 130],A (A indicates 80-100% mortality)
16,N#CC1(c2cncc(Cl)c2)CC2CCC(C1)N2CC(F)(F)C(F)F (stereo not drawn) [Compound 131],A (A indicates 80-100% mortality)
17,N#CC1(c2cncc(Cl)c2)CC2CCC(C1)N2CC(F)(F)C(F)(F)C(F)(F)F (stereo not drawn) [Compound 132],A (A indicates 80-100% mortality)
18,N#CC1(c2cncc(Cl)c2)CC2CCC(C1)N2CC(F)(F)C(F)(F)C(F)(F)C(F)F (stereo not drawn) [Compound 133],A (A indicates 80-100% mortality)
